Reference: US20240001019A1, “MBL-COATED SUBSTRATES HAVING ANTI-THROMBOGENIC PROPERTIES” (MIRAKI INNOVATION THINK TANK LLC, priority 2020, published 2024)

Tests used:
[1] = system: CD62P (platelet P-selectin); experiment: Flow-cytometric analysis of platelet activation (CD62P on CD41a positive platelets); type: cell-based, human; conditions: for CD62P geometrical means of fluorescence intensity from TRAP-incubated samples: 35 μM TRAP, 20 min
[2] = Retention of coupled FcMBL on the membrane under flow (PBS/EDTA wash fractions); type: physicochemical; conditions: Lot 152-04052017, Devices #1-#3, serial 45 mL fractions
Protocol: The FcMBL protein concentration in each sample was determined using the Pierce 660 nm assay and an FcMBL standard curve.
Three Filtrivas from Lot 152-04052017 (Devices #1, #2, and #3) were selected for analysis of their respective PBS/EDTA wash fractions to determine the extent to which the FcMBL bound to the membrane, remains bound under flow conditions. The mass of protein obtained from five serial fractions of 45 mL, three fractions from the Blood Port Output and two fractions from the subsequent Wash Buffer, was determined. […] After the second Blood Port Output, the amount of FcMBL in the subsequent fractions was undetectable (data not shown).

## thrombin receptor activating peptide [TRAP]
[1]; 1st experiment
  CD62P geometrical means of fluorescence intensity from TRAP-incubated samples: 1376
[1]; 2nd experiment
  CD62P geometrical means of fluorescence intensity from TRAP-incubated samples: 209
[1]; 3rd experiment
  CD62P geometrical means of fluorescence intensity from TRAP-incubated samples: 350
[1]; all experiments
  CD62P geometrical means of fluorescence intensity, positive control: > 200

## FcMBL: 383-amino acid human recombinant fusion protein: carbohydrate-binding and neck domains of MBL and Fc domain of human IgG1
[2]
  FcMBL coupled to the membrane under flow, PBS/EDTA washing: stays bound under flow conditions
